Measured values published in PubChem BioAssay AID651630 (Sanford-Burnham Center for Chemical Genomics, 2012).
Activity calls are given as the source filed them.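 The calls were made as follows: active = lipid-stain IC50 at or below a set limit, with nuclear-stain toxicity IC50 at least five times higher; inactive = the rest.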

Columns and labels:
DAPI = experiment: triacylglycerol accumulation inhibitor potency, dose response, cell-based, panel, Nile Red and DAPI fluorescence, H9c2 (AID 651630); conditions: H9c2 cells, DAPI nuclear fluorescence (cytotoxicity counter-readout), oleic acid;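 also: cells exposed to compound overnight before fixation and staining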
TAG = experiment: as above; conditions: H9c2 cells, Nile Red TAG fluorescence, oleic acid

Compound | IC50 (TAG; mean of runs) | IC50 (TAG; run 1) | IC50 (TAG; run 2) | IC50 cytotoxicity (DAPI nuclear signal decrease) (DAPI; mean of runs) | IC50 cytotoxicity (DAPI nuclear signal decrease) (DAPI; run 1) | IC50 cytotoxicity (DAPI nuclear signal decrease) (DAPI; run 2)
COc1ccccc1N1CCN(CC(=O)Nc2cc(C)nn2-c2nc(C)cc(C)n2)CC1 | 18.9 µM (inactive) | 19.7 µM | 18.1 µM | > 25 µM (inactive) | > 25 µM | > 25 µM
CCN(C(=O)COC(=O)c1ccc([N+](=O)[O-])o1)c1cccc2ccccc12 |  | 19.4 µM | > 25 µM | 20 µM (inactive) | 18.1 µM | 21.9 µM
COCCCNC(=O)C(=O)Nc1ccc2c(c1)N(S(=O)(=O)c1cccs1)CCC2 |  | 7.64 µM | > 25 µM | > 25 µM (inactive) | > 25 µM | > 25 µM
CCC(C)(C)NC(=O)C(c1ccc(OC)cc1)N(Cc1ccco1)C(=O)CCC(=O)Nc1cc(C)on1 (centres undefined) | 17.9 µM (inactive) | 21.1 µM | 14.7 µM | > 25 µM (inactive) | > 25 µM | > 25 µM
Cc1onc(NC(=O)c2ccc([N+](=O)[O-])o2)c1Br | > 25 µM (inactive) | > 25 µM | > 25 µM | > 25 µM (inactive) | > 25 µM | > 25 µM
CN1CCN(c2ccc([N+](=O)[O-])cc2C(=O)c2ccc(Cl)cc2)CC1 | > 25 µM (inactive) | > 25 µM | > 25 µM | > 25 µM (inactive) | > 25 µM | > 25 µM
N#CC(C#N)=c1ccc2c(c1)N1C(c3ccccc3)=CC(c3ccccc3)C3CCCCC31N=2 (centres undefined) | 1.92 µM | 1.59 µM | 2.25 µM |  | > 25 µM | > 25 µM

More lines, main results first:

IC50 (TAG; mean of runs) | IC50 (TAG; run 1) | IC50 (TAG; run 2) | Compound | IC50 cytotoxicity (DAPI nuclear signal decrease) (DAPI; mean of runs) | IC50 cytotoxicity (DAPI nuclear signal decrease) (DAPI; run 1) | IC50 cytotoxicity (DAPI nuclear signal decrease) (DAPI; run 2)
2.58 µM | 2.76 µM | 2.41 µM | COC(=O)[C@@]1(Cc2ccc(F)cc2)[C@H]2c3cc(C(=O)N4CCCC4)n(CCCNc4ncc(C(F)(F)F)cc4Cl)c3C[C@H]2CN1C(=O)c1ccccc1 |  | > 25 µM | > 25 µM
> 25 µM (inactive) | > 25 µM | > 25 µM | COCCN(Cc1ccccc1)C(=O)C1CCN(C(=O)Nc2ccccc2)CC1 | > 25 µM (inactive) | > 25 µM | > 25 µM
> 25 µM (inactive) | > 25 µM | > 25 µM | CCOc1ccc(C(=O)NC(=S)Nc2cccc(S(=O)(=O)NC3=NCCC3)c2)cc1 | > 25 µM (inactive) | > 25 µM | > 25 µM
15.2 µM (inactive) | 11.8 µM | 18.6 µM | CCCCCCCC(=O)Nc1cc(C(=O)NCCC)ccc1N1CCC2(CC1)CC(c1cccc(Br)c1)=NO2 | > 25 µM (inactive) | > 25 µM | > 25 µM
13.8 µM | 11.5 µM | 16.1 µM | COc1ccc(CNC(=O)C2CCN(c3nc(-c4ccccc4)nc4c3CCC4)CC2)cc1 | > 25 µM (inactive) | > 25 µM | > 25 µM
> 25 µM (inactive) | > 25 µM | > 25 µM | COc1ccc(OC)c(C2CC(c3ccccc3)=NN2C(=S)Nc2ccccc2)c1 (centres undefined) | > 25 µM (inactive) | > 25 µM | > 25 µM
